Experimental data: patent publication US9174965B2, “Pyrimidinylpiperidinyloxypyridone analogues as GPR119 modulators” (BRISTOL-MYERS SQUIBB COMPANY, priority 2012, dated 2015)
≈ marks a conversion by molar mass, not a printed value.

Experiment: FaSSIF solubility assay
Type: physicochemical
Details: thermodynamic from solid, FaSSIF buffer, 37° C.
Method: Approximately 5-10 mg of accurately weighed test compound was transferred to a glass vial containing 4 mL of a FaSSIF buffer (PharesAG, prepared according to manufactures protocol). The vial was then rotated at 37° C. for 24 h. After equilibration time had been met, the test solution was centrifuge filtered through a 0.45 um PTFE membrane filter. The filtrate was then analyzed by HPLC/UV against a set of standard injections to determine compound concentration.
Find below in Table 9 data for compared compounds (See WO 2011/127106 A1).

solubility at 24 h: 11 µg/mL (≈ 20.7 µM)
Compound: Cc1nc(-n2cc(Cl)c(OC3CCN(c4ncc(Cl)cn4)CC3)cc2=O)ccc1N1CC[C@@H](O)C1=O [Example 4, (R)-5-chloro-4-((1-(5-chloropyrimidin-2-yl)piperidin-4-yl)oxy)-5′-(3-hydroxy-2-oxopyrrolidin-1-yl)-6′-methyl-2H-[1,2′-bipyridin]-2-one]
